Legend:
[1] = system: latex specific T cell lines; experiment: Oligoclonal T cell proliferation assay (3H-thymidine incorporation); type: cell-based, human; set-up: key to Proliferation inducing (+) or non-inducing (−) peptide: Proliferation inducing and non-inducing peptides are indicated by (+) and (−) respectively; Proliferation inducing and non-inducing peptides are indicated by (+) and (−) respectively; conditions: for Oligoclonal proliferative response: 4 day cultures
Procedure: Latex specific T cell lines were isolated using our well established methods for the generation of allergen specific oligoclonal T cell populations (O'Hehir et al., 1987). An initial primary culture was performed for each patient to determine the optimal concentration of LAL for stimulation. For this, peripheral blood mononuclear cells (PBMC) separated from heparinised venous blood by density centrifugation (2×10^5/well) were stimulated with LAL over a concentration range 0.03 to 100 μg/ml, with control cultures of PBMC alone or stimulated with tetanus toxoid. All cultures were maintained in complete medium (RPMI-1640, Gibco Life Technologies supplemented with 2 mmol/L L-glutamine, 100 IU/ml penicillin-streptomycin and 5% screened, heat inactivated human AB serum [Sigma]). […] Therefore, to generate T cell lines, PBMC (2.5×10^6/well) were stimulated for 1 week with LAL at a concentration of 20 μg/ml in 24-well tissue culture plates (Costar, USA). After 7 days, lymphoblasts (1×10^6/well) were restimulated for one week with LAL at a concentration of 20 μg/ml in the presence of an equal number of irradiated (3000 rad) autologous PBMC as antigen presenting cells (APC). On days 2 and 4, cultures were supplemented with Lymphocult-T (5% v/v; Biotest Folex, Germany) and fresh medium. At the end of the second week, lymphoblasts were restimulated for one week with rhev b 5/MBP at a concentration of 20 μg/ml as described above. Oligoclonal T cells were recovered, washed and tested in proliferation and cytokine assays (as described below) either fresh or after cryopreservation in liquid nitrogen. We have previously shown that CD4^+ T cells are preferentially expanded in these cultures.
Oligoclonal T cell blasts (5×10^4) were incubated in 96-well round bottom plates (Linbro, ICN Biomedicals, USA) in triplicate with equal numbers of irradiated APC in the presence of LAL at concentrations ranging from 0.03-100 μg/ml, rHev b 5/MBP (10 and 20 μg/ml), MBP (10 and 20 μg/ml), overlapping peptides of the Hev b 5 sequence (10 and 30 μg/ml), Lymphocult-T (10 IU/ml) or PHA (3 μg/ml). Cultures of T cells and APC in the absence of antigen, T cells alone and APC alone in the absence of antigen were included as controls. After 72 hours cultures were pulsed with 1 μCi of ^3H-thymidine (^3HTdR; Du Pont, NEN) and harvested 12-16 hours later. Proliferation as correlated with ^3HTdR incorporation was measured by liquid scintillation spectroscopy. Results are expressed as mean counts per minute (cpm) for triplicate cultures with standard deviation (SD; ±20% for all experiments).

[2] = system: IL-5; experiment: IL-5 production by latex specific oligoclonal T cells (ELISA on culture supernatants); type: cell-based, human; conditions: for IL-5: supernatant at 48 hours
Procedure: (§1) Representative stimulatory and non-stimulatory peptides were selected and T cells cultured in triplicate with these peptides. At 48 hours 50 μl of supernatant was harvested from the cultures and IL-5 and IFNγ were assayed by ELISA using paired cytokine antibodies (from Pharmingen Becton Dickinson, USA and Endogen, USA respectively). For this, opaque flat bottom ELISA plates (Nalgene, Nunc International) were coated with 30 μl capture antibody at 2 μg/ml in 0.1 M NaHCO3 pH 8.2 coating buffer overnight at 4° C. After washing three times with PBS/0.5% Tween the wells were blocked with 3% BSA/PBS at room temperature for 2 hours. The plates were washed and 30 μL pooled triplicate culture supernatants added in duplicate. […] Light emission was read immediately on a Lumicount microplate Glow Luminometer (Packard Instrument Company). A standard curve was run each time using known concentrations of standard cytokine samples and the concentrations of IL-S and IFNγ in the culture supernatants calculated accordingly. The lower limit of detection of the IL-5 assay was 20 pg/ml and the lower limit of detection of the IFN-γ assay was 2 pg/ml.

[3] = system: IFNγ; experiment: IFNγ production by latex specific oligoclonal T cells (ELISA on culture supernatants); type: cell-based, human; conditions: supernatant at 48 hours
Procedure: as §1

[4] = system: IgE; conditions: cited from earlier work
[5] = P1 T cell line, peptide 10 μg/ml
[6] = P1 T cell line, peptide 30 μg/ml
[7] = P2 T cell line, peptide 10 μg/ml
[8] = P2 T cell line, peptide 30 μg/ml
[9] = P3 T cell line, peptide 10 μg/ml
[10] = P3 T cell line, peptide 30 μg/ml
[11] = P4 T cell line, peptide 10 μg/ml
[12] = P4 T cell line, peptide 30 μg/ml

Molecule: TPEKEEPTAAPAEPEAPAPE [Hev b 5 (46-65)]
- Proliferation inducing (+) or non-inducing (−) peptide ([1]; P1 T cell line): 46-65 (+)
- Oligoclonal proliferative response ([1]; P1 T cell line, antigen 10 μg/ml): 21.3 counts per minute × 10^−3
- Oligoclonal proliferative response ([1]; P1 T cell line, antigen 30 μg/ml): 19.6 counts per minute × 10^−3
- Proliferation inducing (+) or non-inducing (−) peptide ([1]; P2 T cell line): 46-65 (+)
- Oligoclonal proliferative response ([1]; P2 T cell line, antigen 10 μg/ml): 13.4 counts per minute × 10^−3
- Oligoclonal proliferative response ([1]; P2 T cell line, antigen 30 μg/ml): 22.6 counts per minute × 10^−3
- Proliferation inducing (+) or non-inducing (−) peptide ([1]; P3 T cell line): 46.65 (+)
- Oligoclonal proliferative response ([1]; P3 T cell line, antigen 10 μg/ml): 25.8 counts per minute × 10^−3
- Oligoclonal proliferative response ([1]; P3 T cell line, antigen 30 μg/ml): 19.2 counts per minute × 10^−3
- Proliferation inducing (+) or non-inducing (−) peptide ([1]; P4 T cell line): 46-65 (+)
- Oligoclonal proliferative response ([1]; P4 T cell line, antigen 10 μg/ml): 4.4 counts per minute × 10^−3
- Oligoclonal proliferative response ([1]; P4 T cell line, antigen 30 μg/ml): 5.3 counts per minute × 10^−3
- Oligoclonal proliferative response ([1]; P5 T cell line, antigen 10 μg/ml): 4.9 counts per minute × 10^−3
- Oligoclonal proliferative response ([1]; P5 T cell line, antigen 30 μg/ml): 5.6 counts per minute × 10^−3
- Oligoclonal proliferative response ([1]; P6 T cell line, antigen 10 μg/ml): 1.5 counts per minute × 10^−3
- Oligoclonal proliferative response ([1]; P6 T cell line, antigen 30 μg/ml): 1.2 counts per minute × 10^−3
- stimulation index ([1]; fifth of five donors (patient 5)): 5.6
- stimulation index ([1]; first of five donors with IgE reactivity to rHev b 5/MBP (patient 1)): 5.9
- donors whose T cells proliferated in response to the peptide ([1]; five donors with IgE reactivity to rHev b 5/MBP): all five donors
- stimulation index ([1]; fourth of five donors (patient 4)): 5.9
- stimulation index ([1]; second of five donors (patient 2)): 10.8
- stimulation index ([1]; third of five donors (patient 3)): 5.0
- IL-5/IFNγ ratio [2, 5]: 172
- IL-5 [2, 5]: 344 pg/mL
- IL-5/IFNγ ratio [2, 6]: 139.5
- IL-5 [2, 6]: 279 pg/mL
- IL-5/IFNγ ratio [2, 7]: 3.2
- IL-5 [2, 7]: 58 pg/mL
- IL-5/IFNγ ratio [2, 8]: 7.6
- IL-5 [2, 8]: 408 pg/mL
- IL-5/IFNγ ratio [2, 9]: 9.8
- IL-5 [2, 9]: 3799 pg/mL
- IL-5/IFNγ ratio [2, 10]: 14
- IL-5 [2, 10]: 3186 pg/mL
- IL-5/IFNγ ratio [2, 11]: 22.4
- IL-5 [2, 11]: 561 pg/mL
- IL-5/IFNγ ratio [2, 12]: 43.2
- IL-5 [2, 12]: 519 pg/mL
- secretion of IL-5 (in words) ([2]; patient 4 T cell line): secretion of IL-5
- IFNγ [3, 5]: 2 pg/mL
- IFNγ [3, 6]: 2 pg/mL
- IFNγ [3, 7]: 18 pg/mL
- IFNγ [3, 8]: 54 pg/mL
- IFNγ [3, 9]: 388 pg/mL
- IFNγ [3, 10]: 227 pg/mL
- IFNγ [3, 11]: 25 pg/mL
- IFNγ [3, 12]: 12 pg/mL

B1: Hev b 5: major allergen in natural rubber latex, highly acidic and proline rich protein of Hevea brasiliensis (protein, listed as Hevea brasiliensis)
chain: MASVEVESAATALPKNETPEVTKAEETKTEEPAAPPASEQETADATPEKEEPTAAPAEPEAPAPETEKAEEVEKIEKTEEPAPEADQTTPEEKPAEPEPVAEEEPKHETKETETEAPAAPAEGEKPAEEEKPITEAAETATTEVPVEKTEE
- proportion of HCW with latex allergy whose IgE reacts ([4]; HCW): 92%
- proportion of spina bifida patients with latex allergy whose IgE reacts ([4]; spina bifida patients): 56%

Source: US20070059756A1, “Immunointeractive molecules and their uses in treating subjects suffering from Hev b 5 allergies” (priority 1999, published 2007)
